Test results reported in patent publication US8633207B2, “Quinazoline compounds and methods of use thereof” (Ambit Biosciences Corporation, priority 2010, dated 2014).

How the values were obtained:
JAK3 = target: T1, JAK3 (Homo sapiens, UniProt P52333); experiment: Competition binding assay to determine Kd against JAK kinases: JAK3
T1 construct: made in house; host or cells: T7 phage display, or HEK-293 cells (alternative)
T1 sequence (P52333 1-1124): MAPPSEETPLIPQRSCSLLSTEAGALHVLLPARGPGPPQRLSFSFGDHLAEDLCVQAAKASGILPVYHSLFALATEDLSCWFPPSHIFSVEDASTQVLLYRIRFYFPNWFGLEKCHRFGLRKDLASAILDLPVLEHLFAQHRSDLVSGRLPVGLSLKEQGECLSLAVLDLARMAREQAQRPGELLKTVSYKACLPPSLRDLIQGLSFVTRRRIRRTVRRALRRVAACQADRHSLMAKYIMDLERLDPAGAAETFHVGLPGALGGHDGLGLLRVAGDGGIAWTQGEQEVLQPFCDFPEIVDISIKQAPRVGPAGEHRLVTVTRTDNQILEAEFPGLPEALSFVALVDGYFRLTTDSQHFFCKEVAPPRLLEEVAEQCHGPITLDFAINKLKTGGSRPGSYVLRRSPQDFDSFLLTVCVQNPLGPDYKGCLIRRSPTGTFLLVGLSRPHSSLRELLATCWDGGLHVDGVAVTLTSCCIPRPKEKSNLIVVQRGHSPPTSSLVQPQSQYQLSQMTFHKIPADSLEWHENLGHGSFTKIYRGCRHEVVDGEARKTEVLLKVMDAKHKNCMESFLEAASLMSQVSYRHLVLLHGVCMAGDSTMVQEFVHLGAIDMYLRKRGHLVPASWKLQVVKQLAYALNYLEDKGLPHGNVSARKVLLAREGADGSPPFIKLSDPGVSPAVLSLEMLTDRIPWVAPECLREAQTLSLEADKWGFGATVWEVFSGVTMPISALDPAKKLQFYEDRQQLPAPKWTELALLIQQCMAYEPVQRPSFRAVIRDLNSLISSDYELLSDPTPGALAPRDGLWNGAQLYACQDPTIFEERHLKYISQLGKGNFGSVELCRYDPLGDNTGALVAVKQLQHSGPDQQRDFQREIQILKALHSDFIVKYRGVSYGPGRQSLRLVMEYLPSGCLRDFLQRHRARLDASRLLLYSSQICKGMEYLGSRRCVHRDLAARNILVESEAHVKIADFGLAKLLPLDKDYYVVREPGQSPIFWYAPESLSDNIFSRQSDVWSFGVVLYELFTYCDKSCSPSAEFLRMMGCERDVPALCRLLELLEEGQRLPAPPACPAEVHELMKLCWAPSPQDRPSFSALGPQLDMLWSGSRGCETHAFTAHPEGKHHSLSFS
From the text: (§1) Competition Binding Assay to Determine Binding Constants (Kd) of the Compounds Against JAK Kinases
(§2) Competition binding assays used herein were developed, validated and performed as described in Fabian et al., Nature Biotechnology 2005, 23, 329-336. Kinases were produced as fusions to T7 phage (See, Fabian et al. or WO04/015142) or alternatively, the kinases were expressed in HEK-293 cells and subsequently tagged with DNA for PCR detection (See, WO08/005,310). For the binding assays, streptavidin-coated magnetic beads were treated with biotinylated affinity ligands for 30 min at rt to generate affinity resins. The liganded beads were blocked with excess biotin and washed with blocking buffer (SeaBlock (Pierce), 1% BSA, 0.05% Tween 20, 1 mM DTT) to remove unbound ligand and to reduce non-specific binding. Binding reactions were assembled by combining kinase, liganded affinity beads, and test compounds in 1× binding buffer (20% SeaBlock, 0.17×PBS, 0.05% Tween 20, 6 mM DTT). Test compounds were prepared as 100× stocks in DMSO and rapidly diluted into the aqueous environment. DMSO was added to control assays lacking a test compound. Primary screen interactions were performed in polypropylene 384-well plates in a final volume of 34 μL, while Kd determinations were performed in polystyrene 96-well plates in a final volume of 135 μL. The assay plates were incubated at room temperature with shaking for 1 hour, long enough for binding reactions to reach equilibrium, and the affinity beads were washed extensively with wash buffer (1×PBS, 0.05% Tween 20) to remove unbound protein. The beads were then resuspended in elution buffer (1×PBS, 0.05% Tween 20, 2 μM non-biotinylated affinity ligand) and incubated at room temperature with shaking for 30 min. The kinase concentration in the eluates was measured by quantitative PCR. Each kinase was tested individually against each compound. Kds were determined using eleven serial threefold dilutions. A selectivity score, which is a quantitative measure of selectivity of a compound against a panel of enzymes, may be calculated for a compound by dividing the number of enzymes for which a compound meets a set criteria, (for example, a binding constant of 100 nM or less), by the total number of enzymes tested.

Tyk2 = target: T2, Tyk2 (Homo sapiens, UniProt P29597); experiment: Competition binding assay to determine Kd against JAK kinases: Tyk2
T2 construct: made in house; host or cells: T7 phage display, or HEK-293 cells (alternative)
T2 sequence (P29597 whole entry): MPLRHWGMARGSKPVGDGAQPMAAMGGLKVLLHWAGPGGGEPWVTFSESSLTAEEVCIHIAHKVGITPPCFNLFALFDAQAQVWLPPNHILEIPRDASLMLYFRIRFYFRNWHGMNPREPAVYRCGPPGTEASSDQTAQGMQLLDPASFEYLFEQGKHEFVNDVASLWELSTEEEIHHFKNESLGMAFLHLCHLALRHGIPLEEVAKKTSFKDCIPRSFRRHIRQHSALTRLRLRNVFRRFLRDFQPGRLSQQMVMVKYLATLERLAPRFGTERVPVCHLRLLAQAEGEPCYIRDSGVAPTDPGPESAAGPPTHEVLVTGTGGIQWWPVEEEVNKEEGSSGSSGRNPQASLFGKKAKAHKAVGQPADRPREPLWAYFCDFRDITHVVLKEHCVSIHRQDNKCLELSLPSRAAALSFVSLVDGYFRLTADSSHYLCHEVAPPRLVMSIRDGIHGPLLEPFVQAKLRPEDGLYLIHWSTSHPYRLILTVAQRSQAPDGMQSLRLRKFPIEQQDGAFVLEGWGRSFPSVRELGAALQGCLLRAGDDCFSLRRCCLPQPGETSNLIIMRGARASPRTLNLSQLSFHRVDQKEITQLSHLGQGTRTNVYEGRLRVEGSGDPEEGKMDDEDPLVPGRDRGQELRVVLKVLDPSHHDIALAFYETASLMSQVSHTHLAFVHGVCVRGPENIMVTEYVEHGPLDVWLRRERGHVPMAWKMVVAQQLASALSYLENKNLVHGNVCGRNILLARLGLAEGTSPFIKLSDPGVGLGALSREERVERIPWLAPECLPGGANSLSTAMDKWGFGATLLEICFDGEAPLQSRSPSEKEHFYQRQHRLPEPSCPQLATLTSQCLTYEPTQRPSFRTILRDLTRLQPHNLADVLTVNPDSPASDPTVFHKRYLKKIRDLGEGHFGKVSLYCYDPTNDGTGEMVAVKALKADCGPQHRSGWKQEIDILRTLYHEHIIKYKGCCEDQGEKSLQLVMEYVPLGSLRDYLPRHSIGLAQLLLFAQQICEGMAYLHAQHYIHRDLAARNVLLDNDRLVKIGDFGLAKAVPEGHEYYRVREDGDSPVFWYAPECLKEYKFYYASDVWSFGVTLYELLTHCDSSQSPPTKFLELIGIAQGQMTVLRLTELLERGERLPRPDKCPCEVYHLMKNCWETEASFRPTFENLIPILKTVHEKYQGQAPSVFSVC
From the text: as §1, §2

[1] = tested on: GM-CSFR/JAK2/STAT5 pathway; experiment: csTF-1 cell-based reporter assay; conditions: Homo sapiens; csTF-1 cells, GM-CSF at 2 ng/mL, 4 hours; read-out: Cell Assay: CS TF-1 reporter assay IC50
Experimental: csTF-1 Cell-Based Reporter Assay
csTF-1 cells are derived from the human erythroleukemia cell line that is growth dependent on GM-CSF and has an intact GM-CSFR/JAK2/STAT5 pathway. The cell line contains stably integrated beta-lactamase reporter gene under the control of the […] (irf 1) response element recognized by the activated transcription factor STATS. csTF-1 cells (Invitrogen K1219) were washed with assay media (97% OPTIMEM/0.5% dialyzed FBS/0.1 mM NEAA/1 mM Na pyr/P/S) and seeded in the same media at 5×10^5 cell/mL in T150 flask. After 16 hour incubation, cells were seeded at 2×10^5 cell/well in 50 μl volume, into Costar, clear bottom, 96-well assay plates. Serial dilutions of compounds were added to the plates with final DMSO concentration at 0.5% and GM-CSF at 2 ng/mL and the plates were then incubated at […] and 5% CO2 for 4 hours. The plates were brought to room temperature before adding Substrate Mixture according to manufacturer's protocol (Invitrogen, Catalog #K1085). The assay plates containing the substrate mixture were incubated in the dark at room temperature for 2 hours. Blue and green fluorescence was measured with excitation at 409 nm and emission at 460 nm (for blue) and excitation at 409 nm and emission at 530 nm (for green) using Spectra Max Gemini EM.

JAK2 = target: T3, JAK2 (Homo sapiens, UniProt O60674); experiment: Competition binding assay to determine Kd against JAK kinases: JAK2
T3 construct: made in house; host or cells: T7 phage display, or HEK-293 cells (alternative)
T3 sequence (O60674 whole entry): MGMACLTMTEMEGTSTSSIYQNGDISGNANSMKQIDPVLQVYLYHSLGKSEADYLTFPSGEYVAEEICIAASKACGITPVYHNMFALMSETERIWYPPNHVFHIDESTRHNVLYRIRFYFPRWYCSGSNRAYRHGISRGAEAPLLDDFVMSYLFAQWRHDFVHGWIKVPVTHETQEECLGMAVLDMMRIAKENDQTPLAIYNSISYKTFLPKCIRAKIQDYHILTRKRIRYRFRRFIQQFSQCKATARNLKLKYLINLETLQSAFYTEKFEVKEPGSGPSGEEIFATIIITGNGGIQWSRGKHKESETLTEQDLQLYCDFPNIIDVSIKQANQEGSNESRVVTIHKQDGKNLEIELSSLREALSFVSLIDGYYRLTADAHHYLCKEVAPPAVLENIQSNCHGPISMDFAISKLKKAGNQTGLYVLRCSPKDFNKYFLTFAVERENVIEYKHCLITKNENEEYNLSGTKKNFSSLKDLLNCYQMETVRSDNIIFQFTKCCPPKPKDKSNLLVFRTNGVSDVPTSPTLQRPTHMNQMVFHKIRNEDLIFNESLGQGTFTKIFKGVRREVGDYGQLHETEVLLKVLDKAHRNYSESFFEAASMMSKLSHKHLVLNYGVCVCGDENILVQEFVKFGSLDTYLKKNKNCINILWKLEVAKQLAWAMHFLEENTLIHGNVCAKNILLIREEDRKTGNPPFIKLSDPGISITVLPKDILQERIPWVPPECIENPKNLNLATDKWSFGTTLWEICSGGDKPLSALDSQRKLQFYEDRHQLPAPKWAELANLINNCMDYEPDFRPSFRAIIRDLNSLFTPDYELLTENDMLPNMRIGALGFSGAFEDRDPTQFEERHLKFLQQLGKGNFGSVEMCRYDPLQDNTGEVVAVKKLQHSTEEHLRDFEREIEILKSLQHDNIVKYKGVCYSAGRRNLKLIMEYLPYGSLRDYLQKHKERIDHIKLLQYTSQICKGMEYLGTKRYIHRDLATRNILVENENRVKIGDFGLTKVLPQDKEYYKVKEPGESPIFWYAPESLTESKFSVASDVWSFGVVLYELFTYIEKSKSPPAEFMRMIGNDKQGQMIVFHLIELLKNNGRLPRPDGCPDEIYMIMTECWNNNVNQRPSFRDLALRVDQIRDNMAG
From the text: as §1, §2

Kd (JAK3) [µM] | Kd (Tyk2) [µM] | IC50 [1] [µM] | Kd (JAK2) [µM] | SMILES
≤ 0.01 | ≤ 0.01 | ≤ 0.1 | ≤ 0.001 | CC(=O)Nc1cccc2c(Nc3cc(C)[nH]n3)nc(C(F)(F)c3ccc(F)cn3)nc12 [Example 48, N-(2-(difluoro(5-fluoropyridin-2-yl)methyl)-4-((5-methyl-1H-pyrazol-3-yl)amino)quinazolin-8-yl)acetamide]
0.01 to 0.1 | 0.01 to 0.1 | 0.1 to 0.5 | 0.001 to 0.01 | Cc1cc(Nc2nc(C(F)(F)c3ccc(F)cn3)nc3c([N+](=O)[O-])cccc23)n[nH]1 [Example 49, 2-(difluoro(5-fluoropyridin-2-yl)methyl)-N-(5-methyl-1H-pyrazol-3-yl)-8-nitroquinazolin-4-amine]
≤ 0.01 | ≤ 0.01 | ≤ 0.1 | ≤ 0.001 | Cc1cc(Nc2nc(C(F)(F)c3ccc(F)cn3)nc3c(N)cccc23)n[nH]1 [Example 50, 2-(difluoro(5-fluoropyridin-2-yl)methyl)-N4-(5-methyl-1H-pyrazol-3-yl)quinazoline-4,8-diamine]
0.01 to 0.1 | ≤ 0.01 | 0.1 to 0.5 | ≤ 0.001 | Cc1cc(Nc2nc(C(F)(F)c3ccc(F)cn3)nc3c(C4CC4)cccc23)n[nH]1 [Example 51, 8-cyclopropyl-2-(difluoro(5-fluoropyridin-2-yl)methyl)-N-(5-methyl-1H-pyrazol-3-yl)quinazolin-4-amine]
≤ 0.01 | ≤ 0.01 | ≤ 0.1 | ≤ 0.001 | Cc1cc(Nc2nc(C(F)(F)c3ccc(F)cn3)nc3c(NS(C)(=O)=O)cccc23)n[nH]1 [Example 52, N-(2-(difluoro(5-fluoropyridin-2-yl)methyl)-4-((5-methyl-1H-pyrazol-3-yl)amino)quinazolin-8-yl)methanesulfonamide]
≤ 0.01 | ≤ 0.01 | 0.1 to 0.5 | ≤ 0.001 | Cc1cc(Nc2nc(C(F)(F)c3ccc(F)cn3)nc3c(C(=O)O)cccc23)n[nH]1 [Example 53, 2-(difluoro(5-fluoropyridin-2-yl)methyl)-4-((5-methyl-1H-pyrazol-3-yl)amino)quinazoline-8-carboxylic acid]
